Source: article PMC12668304, “A Triple Threat Against Ovarian Cancer: Os(II)‐Pt(IV)‐Ceritinib Conjugates for Photodynamic Therapy, Chemotherapy, and Immunogenic Cell Death Induction” (Angewandte Chemie (International Ed. in English), 2025)

Tested on: MCA205 cells co-incubated with RAW 264.7 macrophages
Assay: Phagocytosis of treated cancer cells by macrophages (flow cytometry, confocal microscopy)
Format: cell-based, mouse
Conditions: IC50,48 h concentration, 3 h co-incubation
Procedure: All compounds were incubated for 4 h with the cells, which were either irradiated at 740 nm (1 h) or kept in the dark. 16 h post‐treatment, cancer cells were stained with CellMask Green, while RAW 264.7 macrophages were stained with CellMask DeepRed. Co‐culture was performed at a 1 : 2 (macrophage : tumour cells) ratio for 3 h. Thereafter, the phagocytosis was evaluated by flow cytometry and confocal microscopy.
To quantify this phagocytic response, a flow cytometry assay was performed, see Figure 12. MCA205 cells were incubated with Os‐Pt‐Cer for 4 h, after which half of the samples were either kept in the dark (−L) or irradiated (+L) for 1 h (740 nm). After an additional 16 h, the cells were co‐incubated with RAW 264.7 macrophages for 3 h. […] Flow cytometry analysis was used to quantify phagocytosis, identifying double‐positive (green–red) events as phagocytic macrophages. […]
analyzed using an ATP assay kit according to the manufacturer’s instructions. Luminescence was measured on a SPARK multimode reader (Tecan). […]
MCA205 and A2780 cells were seeded on µ-slide 8 well (Ibidi) (100 µl/well) and left for 24 h to attach to the bottom at a density of 2 x 10^4 cells/well and incubated overnight. […] 30 minutes before starting confocal fluorescence microscopy analysis, Hoechst was added at a final concentration of 1 µg/mL. […] Images were analysed with LAS X Film FCS software. […]

| Compound | phagocytosis, double‐positive (green–red) events (upper right quadrant) (+L (740 nm, 1 h)) [%] | phagocytosis, double‐positive (green–red) events (upper right quadrant) (light condition not given) [%] |
| --- | --- | --- |
| C=Cc1c(C)c2cc3nc(c(CC(=O)O)c4[nH]c(cc5nc(cc1[nH]2)C(C)=C5CC)c(C)c4C(=O)O)[C@@H](CCC(=O)O)[C@@H]3C [Ce6, Chlorin e6] | 7.4 | – |
| O=C1[O][Pt]2([NH][C@@H]3CCCC[C@H]3[NH]2)[O]C1=O [Oxaliplatin] | – | 6.0 |
